{"source": "patent US20220143184A1", "about": "“MITOCHONDRION/RIBONUCLEIC ACID-TARGETED AND MIGRATABLE PHOTOSENSITIZED PROBE AND APPLICATION THEREOF” (SHENZHEN INSTITUTES OF ADVANCED TECHNOLOGY, priority 2019, published 2022)", "test": "Singlet oxygen generation in aqueous solution, ABDA absorbance (Example 8, Experiment 2)", "assay_type": "physicochemical", "details": "2 μM, without RNA, 50 μM ABDA, white light 300 mW/cm^2, 0-6 min", "description": "Different reactive oxygen indicators were added to the photosensitized probe aqueous solution, and the fluorescence or absorption spectra were measured. Four experiments were conducted as follows:\n50 μM ABDA was added to the aqueous solutions of PBS, 2 μM photosensitized probe, 2 μM photosensitized probe+0.8 mM RNA, and 2 μM RB (a commercial singlet oxygen-generating photosensitizer). These solutions were irradiated for 0-6 min with the white light (300 mW/cm^2) of the xenon lamp, absorption spectra at 300-600 nm were measured, and the absorbance values at 378 nm were recorded to indicate the generation rate of singlet oxygen."}
{"smiles": "O=C1OC2(c3cc(I)c(O)c(I)c3Oc3c2cc(I)c(O)c3I)c2c(Cl)c(Cl)c(Cl)c(Cl)c21", "note": "[RB, Rose Bengal B, reference compound]", "values": [{"measurement": "absorbance of ABDA at 378 nm with light irradiation", "value": "decreases much faster"}]}
